Test results published in PMC9884426, “A phase 1 clinical trial of the repurposable acetyllysine mimetic, n-methyl-2-pyrrolidone (NMP), in relapsed or refractory multiple myeloma” (Clinical Epigenetics, 2023).
Where “and” joins values, the source holds several entries; their conditions need not be identical. Equal values may be shown once.

Assays:
[1] = tested on: relapsed/refractory multiple myeloma (RR–MM); assay: Phase 1 trial of oral NMP: efficacy (IMWG response, progression-free and overall survival); format: in vivo, human
Method: (§1) This was a phase 1, open-label dose-escalation trial of orally administered NMP in patients with relapsed/refractory multiple myeloma (RR–MM). Eligible patients were ≥ 18 years old with Eastern Cooperative Oncology Group (ECOG) < 2 and histologically confirmed plasma cell myeloma defined by WHO 2008 criteria with measurable disease (defined by serum M-protein > 5 g/L, urine M-protein > 200 mg/24 h, involved serum free light chain > 100 mg/L or measurable soft tissue plasmacytoma). Patients were required to have relapsed following prior treatment and/or be refractory to or intolerant of both bortezomib and lenalidomide and must have undergone autologous stem cell transplant (unless deemed ineligible at investigator discretion). Exclusion criteria included: central nervous system involvement, active second malignancy within two years, uncontrolled medical conditions contraindicating an investigational agent due to inadequate organ function and concomitant exposure to anti-myeloma therapies.
(§2) The primary study endpoint was to determine the MTD of orally administered NMP in patients with RR–MM. Secondary endpoints included safety, PK analyses, IMWG defined response rate and exploratory immunological biomarkers. Adverse events were defined according to Common Terminology Criteria for Adverse Events (CTCAE version 4.03). Haematological DLTs were defined as grade 4 neutropenia unresponsive to G-CSF, grade 4 thrombocytopenia and febrile neutropenia. Non-haematological DLTs were grade 3 or higher and considered probably related to study drug and not attributable to disease progression and those resulting treatment delays greater than two weeks due to drug-related toxicity. Self-limited (< 24 h) gastrointestinal side effects (e.g. nausea, diarrhoea) responding to supportive measures were not classified as DLTs.
Pharmaceutical grade NMP stock solution (Ashland, Columbus, OH, USA) was diluted in ORA SWEET® SF (Medical Flavouring Systems, Vic, Australia) oral syrup vehicle and sterile water to a final concentration of 50 mg/mL and dispensed weekly in amber glass bottles for storage a room temperature. […] Intra-patient dose escalation at 100 mg increments was also permitted whereby the MTD had not been determined and the patient tolerated two consecutive cycles without DLT or an objective disease response. […]
The study was planned to recruit up to 20 patients, 15 in the dose finding cohort and five as a dose expansion. […] Time to progression was calculated from the first day of treatment to progression using the Kaplan–Meier method. Flow cytometry and gene expression data were analysed using GraphPad Prism (version 6.0; GraphPad Software, San Diego, CA). Data were analysed using Wilcoxon’s matched pairs signed rank test compared with baseline samples (*p < 0.05).

[2] = tested on: patients with relapsed/refractory multiple myeloma (RR–MM); assay: Phase 1 dose-escalation trial of oral NMP: safety, adverse events (CTCAE 4.03), DLT, MTD; format: in vivo
Method: as §1, §2
Pharmaceutical grade NMP stock solution (Ashland, Columbus, OH, USA) was diluted in ORA SWEET® SF (Medical Flavouring Systems, Vic, Australia) oral syrup vehicle and sterile water to a final concentration of 50 mg/mL and dispensed weekly in amber glass bottles for storage a room temperature. NMP was administered as a single morning dose on an empty stomach at least 30 min prior to food. Patients were dosed according to an ‘accelerated’ escalation schedule (one patient per dose level) in the absence of significant toxicity until a DLT was experienced and then in a 3 × 3 ‘standard’ dose-escalation phase. Intra-patient dose escalation at 100 mg increments was also permitted whereby the MTD had not been determined and the patient tolerated two consecutive cycles without DLT or an objective disease response. Treatment was administered daily for 28-day cycles until withdrawal from protocol due to toxicity or disease progression.

CN1CCCC1=O [NMP, N-methyl-2-pyrrolidone]
5: Musculoskeletal pain: Total (patients) ([2]; human, in vivo) | Overall adverse events: worst grade 2 (patients) ([2]; human, in vivo)
15%: Constipation: Total ([2]; human, in vivo) | Dysgeusia: Total ([2]; human, in vivo) | Fever: Total ([2]; human, in vivo) | Pruritus: Total ([2]; human, in vivo) | Renal dysfunction: Total ([2]; human, in vivo) | Sore throat: Total ([2]; human, in vivo) | URTI: Total ([2]; human, in vivo)
6: Nausea: worst grade 2 (patients) ([2]; human, in vivo) | Overall adverse events: worst grade 3 (patients) ([2]; human, in vivo)
100%: Overall adverse events: Total ([2]; human, in vivo)
7: Nausea: Total (patients) ([2]; human, in vivo)
not defined: maximum tolerated dose (MTD) ([2]; human, in vivo, po)
1: Anaemia: worst grade 2 (patients) ([2]; human, in vivo) | Constipation: worst grade 1 (patients) ([2]; human, in vivo) | Constipation: worst grade 2 (patients) ([2]; human, in vivo) | Diarrhoea: worst grade 3 (patients) ([2]; human, in vivo) | Dizziness: worst grade 2 (patients) ([2]; human, in vivo) | Fever: worst grade 3 (patients) ([2]; human, in vivo) | Fever: worst grade 4 (patients) ([2]; human, in vivo) | Nausea: worst grade 1 (patients) ([2]; human, in vivo) | Neutrophil count decreased: worst grade 2 (patients) ([2]; human, in vivo) | Overall adverse events: worst grade 1 (patients) ([2]; human, in vivo) | Overall adverse events: worst grade 4 (patients) ([2]; human, in vivo)
8%: overall DLT rate ([2]; human, in vivo)
33.1 months and 33 months: Median overall survival ([1]; 13 RR–MM patients, 95% CI 9.7– > 44.5 months, median follow-up 43.5 months)
diarrhoea: dose limiting toxicity (DLT) event ([2]; in vivo)
57 days: Median progression-free survival ([1]; 13 RR–MM patients, range 29–539 days)
23%: Anaemia: Total ([2]; human, in vivo) | Anorexia: Total ([2]; human, in vivo) | Diarrhoea: Total ([2]; human, in vivo) | Dizziness: Total ([2]; human, in vivo) | Fatigue: Total ([2]; human, in vivo) | Peripheral sensory neuropathy: Total ([2]; human, in vivo)
54%: Grade 3–4 adverse events, patients ([2]; human, in vivo) | Nausea: Total ([2]; human, in vivo)
0%: IMWG objective disease response (partial response or better), ORR ([1]; 13 patients, 95% CI 0–25%)
13: Overall adverse events: Total (patients) ([2]; human, in vivo)
no grade 5 AEs: grade 5 AEs ([2]; 13 patients)
38%: Musculoskeletal pain: Total ([2]; human, in vivo)
0: Anaemia: worst grade 1 (patients) ([2]; human, in vivo) | Anaemia: worst grade 4 (patients) ([2]; human, in vivo) | Anorexia: worst grade 1 (patients) ([2]; human, in vivo) | Anorexia: worst grade 3 (patients) ([2]; human, in vivo) | Anorexia: worst grade 4 (patients) ([2]; human, in vivo) | Constipation: worst grade 3 (patients) ([2]; human, in vivo) | Constipation: worst grade 4 (patients) ([2]; human, in vivo) | Diarrhoea: worst grade 2 (patients) ([2]; human, in vivo) | Diarrhoea: worst grade 4 (patients) ([2]; human, in vivo) | Dizziness: worst grade 3 (patients) ([2]; human, in vivo) | Dizziness: worst grade 4 (patients) ([2]; human, in vivo) | Dysgeusia: worst grade 2 (patients) ([2]; human, in vivo) | Dysgeusia: worst grade 3 (patients) ([2]; human, in vivo) | Dysgeusia: worst grade 4 (patients) ([2]; human, in vivo) | Fatigue: worst grade 2 (patients) ([2]; human, in vivo) | Fatigue: worst grade 3 (patients) ([2]; human, in vivo) | Fatigue: worst grade 4 (patients) ([2]; human, in vivo) | Fever: worst grade 1 (patients) ([2]; human, in vivo) | Fever: worst grade 2 (patients) ([2]; human, in vivo) | Musculoskeletal pain: worst grade 3 (patients) ([2]; human, in vivo) | Musculoskeletal pain: worst grade 4 (patients) ([2]; human, in vivo) | Nausea: worst grade 3 (patients) ([2]; human, in vivo) | Nausea: worst grade 4 (patients) ([2]; human, in vivo) | Neutrophil count decreased: worst grade 1 (patients) ([2]; human, in vivo) | Neutrophil count decreased: worst grade 4 (patients) ([2]; human, in vivo) | Peripheral sensory neuropathy: worst grade 1 (patients) ([2]; human, in vivo) | Peripheral sensory neuropathy: worst grade 3 (patients) ([2]; human, in vivo) | Peripheral sensory neuropathy: worst grade 4 (patients) ([2]; human, in vivo) | Pruritus: worst grade 2 (patients) ([2]; human, in vivo) | Pruritus: worst grade 3 (patients) ([2]; human, in vivo) | Pruritus: worst grade 4 (patients) ([2]; human, in vivo) | Renal dysfunction: worst grade 1 (patients) ([2]; human, in vivo) | Renal dysfunction: worst grade 2 (patients) ([2]; human, in vivo) | Renal dysfunction: worst grade 4 (patients) ([2]; human, in vivo) | Sore throat: worst grade 2 (patients) ([2]; human, in vivo) | Sore throat: worst grade 3 (patients) ([2]; human, in vivo) | Sore throat: worst grade 4 (patients) ([2]; human, in vivo) | URTI: worst grade 1 (patients) ([2]; human, in vivo) | URTI: worst grade 3 (patients) ([2]; human, in vivo) | URTI: worst grade 4 (patients) ([2]; human, in vivo)
2: Anaemia: worst grade 3 (patients) ([2]; human, in vivo) | Constipation: Total (patients) ([2]; human, in vivo) | Diarrhoea: worst grade 1 (patients) ([2]; human, in vivo) | Dizziness: worst grade 1 (patients) ([2]; human, in vivo) | Dysgeusia: Total (patients) ([2]; human, in vivo) | Dysgeusia: worst grade 1 (patients) ([2]; human, in vivo) | Fever: Total (patients) ([2]; human, in vivo) | Musculoskeletal pain: worst grade 1 (patients) ([2]; human, in vivo) | Neutrophil count decreased: worst grade 3 (patients) ([2]; human, in vivo) | Pruritus: Total (patients) ([2]; human, in vivo) | Pruritus: worst grade 1 (patients) ([2]; human, in vivo) | Renal dysfunction: Total (patients) ([2]; human, in vivo) | Renal dysfunction: worst grade 3 (patients) ([2]; human, in vivo) | Sore throat: Total (patients) ([2]; human, in vivo) | Sore throat: worst grade 1 (patients) ([2]; human, in vivo) | URTI: Total (patients) ([2]; human, in vivo) | URTI: worst grade 2 (patients) ([2]; human, in vivo)
3: Anaemia: Total (patients) ([2]; human, in vivo) | Anorexia: Total (patients) ([2]; human, in vivo) | Anorexia: worst grade 2 (patients) ([2]; human, in vivo) | Diarrhoea: Total (patients) ([2]; human, in vivo) | Dizziness: Total (patients) ([2]; human, in vivo) | Fatigue: Total (patients) ([2]; human, in vivo) | Fatigue: worst grade 1 (patients) ([2]; human, in vivo) | Musculoskeletal pain: worst grade 2 (patients) ([2]; human, in vivo) | Neutrophil count decreased: Total (patients) ([2]; human, in vivo) | Peripheral sensory neuropathy: Total (patients) ([2]; human, in vivo) | Peripheral sensory neuropathy: worst grade 2 (patients) ([2]; human, in vivo)
69%: best response of stable disease (SD), patients ([1]; nine of 13 patients, 95% CI 39–91%)
